In experiment [1] the test system is metastatic colorectal cancer. As to conditions: cited from earlier work.
In experiment [2] the test system is cleaved/activated Notch intracellular domain (NICD). Nature of the experiment: NICD staining in Dll4-Fc- or DAPT-treated HDMECs (LECs and BECs). The format is cell-based, human. The settings on record: 10 μg/mL, 24 hours. The method, then: FIG. 1. Expression and function of Dll4-Fc. (A) Map of the AAV9-Dll4-Fc vector. (B) Structure of the Dll4-Fc as a dimeric fusion protein of the ECD of mouse Dll4 and Fc region of human immunoglobulin (hFc). (C) Dll4-Fc in the supernatants of AAV9-transfected 293T cells was analyzed by metabolic labeling, immunoprecipitation with Protein A Sepharose and autoradiography after collecting with protein Sepharose from the supernatant of the virus-infected cells. (D) Human dermal microvascular endothelial cells (HDMECs) on glass coverslips stained with Dll4-Fc (red) on ice. After fixation with paraformaldehyde (PFA) and permeabilzation, the cells were stained for Prox-1 (Green) and Hoechst (Blue). Human immunoglobulin G1 (hIgG) was used as a negative control (Red). Note Dll4-Fc in both the Prox-1-positive lymphatic vascular endothelial cells (LECs) and Prox-1-negative cells. (E) Effect of Dll4-Fc on Notch downstream gene expression. HDMECs were treated with 10 μg/mL Dll4-Fc or 10 μg/mL DAPT for 24 hours, and the expression of Hes-1, Hey-2 and NRARP were quantified by qPCR and normalized for the expression of β-actin. The experiment was repeated 4 times. (F) The cells used in (E) were stained for NICD lymphatic vascular endothelial cells (LECs). Prox-1-positive LECs are indicated by arrowheads. (G) Quantification of NICD fluorescence intensity. **:p<0.01. *: p<0.05. […]

A further experiment has as its system BECs on LECs islands. Nature of the experiment: Sprout-like structures in 2D culture of LECs and BECs. The format is cell-based, human. The settings on record: 1:1 LECs and BECs, 48 hours, 200 ng/ml VEGF-C with or without 10 μg/ml Dll4-Fc. The method, then:
1:1 Mixtures of BECs and LECs were grown on cover slips for 48 hours without VEGF-C to allow them to make LECs islands surrounded by BECs. The cells were then incubated for a further 48 hours with 200 ng/ml VEGF-C (produced by Dr Michael Jeltsch, University of Helsinki) with or without 10 μg/ml recombinant human Dll4-Fc protein (R&D Systems). After fixation with 1% PFA, the samples were immunostained for PECAM-1, a blood vascular endothelial marker, and podoplanin, a lymphatic endothelial marker, to identify BECs and LECs. The number of sprout-like projections of BECs on LECs islands was then counted under a fluorescence microscope.

Experiment [3] relates to VEGF-C-induced BaF3/VEGFR-3 cell proliferation. Nature of the experiment: BaF3/VEGFR-3 assay. The settings on record: supernatant from SK-VEGFR-3(D1-3)-Fc cells. The format is cell-based, mouse. The method, then: The BaF3/VEGFR-3 cells are derived from the interleukin-3 (IL-3) dependent mouse pro-B cell line, BaF3 (Bernardi et al., 1987). The cells express a chimeric receptor consisting of the ECD of human VEGFR-3 fused in-frame to the transmembrane and intracellular domain of mouse erythropoietin receptor (Achen et al., 2000). In IL-3 deficient cell media, the cells can be rescued by the addition of VEGF-C. The serial dilutions of supernatants (50 μl each), as well as positive and negative controls were applied in the wells of 96-well plates in quadruplicate. Subsequently, 20,000 BaF3/VEGFR-3 cells in 50 μl were added and the cells incubated at 37° C. for 48 hours. MTT substrate was added and the cells incubated at 37° C. for 2 hours. Lysis buffer (10% SDS, 10 mM HCl) was added and the plates incubated at 37° C. overnight for colour development. Quantification was done by absorbance at 540 nm.

For the next experiment, the system named is SK-MeI-103 tumors. Nature of the experiment: SK-MeI-103 tumor xenograft growth (control or VEGFR-3(D1-3)-Fc expressing). The format is in vivo, mouse. As to conditions: SK-MeI-103, AAV9-HSA treated mice. On the procedure: (§1) FIG. 7. Neutralization of VEGF-C/D attenuates the inhibition by Dll4-Fc. (A) The mice were injected by AAV9-Dll4-Fc or AAV9-HSA, followed by subcutaneous implantation of 5×10^6 VEGFR-3(D1-3)-Fc expressing or control retrovirus-transfected SK-MeI-103 cells. *: p<0.01, **: p<0.05. (B) Endomucin staining of the tumors. (C) Quantification of endomucin positive area. […] Scale bar 100 μm.
Six- to eight-week old female nu/nu BALB/c mice were purchased from Harlan Laboratories (Venray, The Netherlands). The National Board for Animal Experiments at the Provincial State Office of Southern Finland approved all the experiments, which were performed in accordance with Finnish legislation regarding the humane care and use of laboratory animals. […] Once the tumors became visible during the first few days, the size of the tumor was measured by a digital caliper every second day. The tumor volume was calculated using the formula: (length)×(width)×(depth)×0.52.
The SK-Mel-103 cells were transfected by an empty retrovirus (control) or by a retrovirus encoding VEGFR-3(D1-3)-Fc and then subcutaneously inoculated into nu/nu mice treated with the AAV9-HSA or the AAV9-Dll4-Fc as described above. […] This difference was statistically significant when measured 10, 12 and 14 days after tumor inoculation. […]

The subject of experiment [4] is SK-MeI-103 tumor blood vessels. Nature of the experiment: Endomucin and VEGFR-3 staining of SK-MeI-103 tumors. As to conditions: SK-MeI-103 tumors expressing the VEGF-C/D trap. The format is in vivo, mouse.
From the text: FIG. 6. Dll4-Fc suppresses growth of tumors expressing high levels of endogenous VEGF-C. (A) VEGF-C mRNA levels in the indicated tumor cell lines analyzed by qRT-PCR. (B) Effects of Dll4-Fc on the proliferation LNM35 and SK-MeI-103 cells in culture. […] (C) The effect of Dll4-Fc on the growth of LNM35 and SK-MeI-103 tumors. (D) Endomucin staining of LNM35 and SK-MeI-103 tumors. More sprouts were associated with Dll4-Fc treatment (arrows). (E) Quantification of endomucin positive areas in LNM35 and SK-MeI-103 tumors from (D). **:p<0.01. Scale bar 50 μm.
as §1
FIG. 9. Dll4-Fc induced hypersprouting and VEGFR-3 expression in tumors. (A) High magnification fluorescent imaging of blood vessels in the SW480 tumors. Endomucin staining. […] (C) Quantification of VEGFR-3 staining intensity in the blood vessels. **: p<0.01. […]
The immunofluorescent images were captured with a Zeiss digital Axiocam camera connected to a Zeiss AxioPlan 2 microscope. […] The image quantification was carried out using ImageJ software (NIH, Bethesda, Md.).

Where [5] appears, read: newly diagnosed, Mayo Clinic or Roswell Park regimen.
Setting [6] is: subjects progressed following 5-FU therapy.

Regarding 5-FU/leucovorin, in experiment [1] (setting [5]), the median survival was 12-14 months and the “median time to disease progression” value is recorded as 4-5 months.

Regarding `CCc1c2c(nc3ccc(OC(=O)N4CCC(N5CCCCC5)CC4)cc13)-c1cc3c(c(=O)n1C2)COC(=O)[C@]3(O)CC` [irinotecan], in experiment [1] (setting [6]), the “prolongation of survival versus best supportive care” value is reported as 2.8 month and the “prolongation of survival versus infusional 5-FU” value is 2.2 month.

Take `C[C@H](NC(=O)Cc1cc(F)cc(F)c1)C(=O)N[C@H](C(=O)OC(C)(C)C)c1ccccc1` [DAPT, N—[N-(3,5-difluorophenacetyl)-1-alanyl]-S-phenyl-glycine t-butyl ester]: the “intensity of NICD” value in experiment [2] is “decreased in both LECs and BECs”.

B1: VEGF-C: Vascular endothelial growth factor-C protein added to endothelial cell cultures (protein)
chain: AHYNTEILKSIDNEWRKTQCMPREVCIDVGKEFGVATNTFFKPPCVSVYRCGGCCNSEGLQCMNTSTSYLSKTLFEITVPLSQGPKPVTISFANHTSCRCMSKLDVYRQVHSIIRR
With B1, the “frequency of sprout-like structures of BECs over LECs islands” value in the experiment with BECs on LECs islands is given as “tended to increase the sprout-like structure, but the difference was not statistically significant”.

B2: VEGFR-3(D1-3)-Fc: fusion protein of the immunoglobulin-like domains 1-3 of the extracellular part of human VEGFR-3 and the Fc part of human immunoglobulin G1 (protein)
chain: YSMTPPTLNITEESHVIDTGDSLSISCRGQHPLEWAWPGAQEAPATGDKDSEDTGVVRDCEGTDARPYCKVLLLHEVHANDTGSYVCYYKYIKARIEGTTAASSYVFVRDFEQPFINKPDTLLVNRKDAMWVPCLVSIPGLNVTLRSQSSVLWPDGQEVVWDDRRGMLVSTPLLHDALYLQCETTWGDQDFLSNPFLVHITGNELYDIQLLPRKSLELLVGEKLVLNCTVWAEFNSGVTFDWDYPGKQAERGKWVPERRSQQTHTELSSILTIHNVSQHDLGSYVCKANNGIQRFRESTEVIVHE
modifications: left off: a dimerising Fc or GST
notes: fusion protein of the immunoglobulin-like domains 1-3 of the extracellular part of human VEGFR-3 and the Fc part of human immunoglobulin G1
For the molecule B2, in experiment [3], the “BaF3/VEGFR-3 cell proliferation induced by VEGF-C” value is on record as “suppresses”. In the experiment with SK-MeI-103 tumors, the “growth rates of VEGFR-3(D1-3)-Fc versus empty retrovirus tumors” value is “No difference in growth rates”. The “endothelial proliferation / vessel density in tumors” value in experiment [4] is on record as “downregulated endothelial proliferation”.
